Activity calls are given as the source filed them.
What was measured:
[1] = target: T1, Voltage-gated N-type calcium channel alpha-1B subunit/Amyloid beta A4 precursor protein-binding family A member 1 (Homo sapiens, UniProt Q00975+Q02410); format: protein assay
[2] = target: T1, Voltage-gated N-type calcium channel alpha-1B subunit/Amyloid beta A4 precursor protein-binding family A member 1; format: protein assay; remark: listed apart in the source
[3] = target: T2, Calpain-2 catalytic subunit (Sus scrofa, UniProt P43367); assay: m-calpain protease blockers, concentration series – biochemical, fluorogenic peptide substrate, dose response (AID 1420); format: functional
T2 sequence (P43367 whole entry): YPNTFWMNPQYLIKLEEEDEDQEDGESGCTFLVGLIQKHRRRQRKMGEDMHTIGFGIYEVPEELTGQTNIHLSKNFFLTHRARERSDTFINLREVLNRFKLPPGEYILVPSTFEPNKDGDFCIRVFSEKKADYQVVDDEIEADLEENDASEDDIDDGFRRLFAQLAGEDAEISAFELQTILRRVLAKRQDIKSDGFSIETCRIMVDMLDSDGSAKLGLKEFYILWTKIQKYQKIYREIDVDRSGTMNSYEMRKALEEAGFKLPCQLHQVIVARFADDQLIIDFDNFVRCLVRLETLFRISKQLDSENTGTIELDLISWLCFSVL

[4] = Luminescence-based cell-based high throughput dose response assay to identify activators of the DAF-12 from the parasite S. stercoralis (ssDAF-12).; format: functional
[5] = target: T3, Short transient receptor potential channel 4 (Mus musculus, UniProt Q9QUQ5); assay: calcium entry via TRPC4 opening agents – cell-based, HEK293 TRPC4/mu-opioid, Fluo-4 calcium, dose response (AID 434937); format: functional
T3 sequence (Q9QUQ5 whole entry): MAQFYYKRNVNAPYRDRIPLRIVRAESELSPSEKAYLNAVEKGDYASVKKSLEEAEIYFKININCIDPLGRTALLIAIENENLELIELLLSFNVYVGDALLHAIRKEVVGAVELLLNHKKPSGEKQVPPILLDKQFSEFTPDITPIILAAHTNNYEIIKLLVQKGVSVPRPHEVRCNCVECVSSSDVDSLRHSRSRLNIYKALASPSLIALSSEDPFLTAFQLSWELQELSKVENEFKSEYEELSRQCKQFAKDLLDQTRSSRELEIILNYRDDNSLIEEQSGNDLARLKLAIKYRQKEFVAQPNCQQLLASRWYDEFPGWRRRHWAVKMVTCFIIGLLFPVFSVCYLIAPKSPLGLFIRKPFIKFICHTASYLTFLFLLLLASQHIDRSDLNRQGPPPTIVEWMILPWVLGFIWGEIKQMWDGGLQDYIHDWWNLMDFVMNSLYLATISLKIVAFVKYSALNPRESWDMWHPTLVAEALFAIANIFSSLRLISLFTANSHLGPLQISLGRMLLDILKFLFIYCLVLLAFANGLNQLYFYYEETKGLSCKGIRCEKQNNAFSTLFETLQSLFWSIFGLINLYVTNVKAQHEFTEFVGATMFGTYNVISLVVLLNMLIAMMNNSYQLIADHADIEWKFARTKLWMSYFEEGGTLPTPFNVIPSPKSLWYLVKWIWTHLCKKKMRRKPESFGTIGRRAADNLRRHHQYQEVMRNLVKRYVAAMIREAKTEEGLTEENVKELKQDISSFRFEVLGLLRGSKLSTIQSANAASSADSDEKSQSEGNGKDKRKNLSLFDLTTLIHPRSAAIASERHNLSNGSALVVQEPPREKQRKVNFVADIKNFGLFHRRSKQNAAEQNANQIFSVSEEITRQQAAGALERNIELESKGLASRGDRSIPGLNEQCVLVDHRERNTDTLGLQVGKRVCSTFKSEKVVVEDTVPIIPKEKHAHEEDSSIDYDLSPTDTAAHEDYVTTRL

[6] = target: T4, High affinity choline transporter 1 (Homo sapiens, UniProt Q9GZV3); assay: human choline transporter blockers, potency – cell-based, 5-point CRC, membrane potential dye, dose response (AID 504840); format: functional
T4 sequence (Q9GZV3 whole entry): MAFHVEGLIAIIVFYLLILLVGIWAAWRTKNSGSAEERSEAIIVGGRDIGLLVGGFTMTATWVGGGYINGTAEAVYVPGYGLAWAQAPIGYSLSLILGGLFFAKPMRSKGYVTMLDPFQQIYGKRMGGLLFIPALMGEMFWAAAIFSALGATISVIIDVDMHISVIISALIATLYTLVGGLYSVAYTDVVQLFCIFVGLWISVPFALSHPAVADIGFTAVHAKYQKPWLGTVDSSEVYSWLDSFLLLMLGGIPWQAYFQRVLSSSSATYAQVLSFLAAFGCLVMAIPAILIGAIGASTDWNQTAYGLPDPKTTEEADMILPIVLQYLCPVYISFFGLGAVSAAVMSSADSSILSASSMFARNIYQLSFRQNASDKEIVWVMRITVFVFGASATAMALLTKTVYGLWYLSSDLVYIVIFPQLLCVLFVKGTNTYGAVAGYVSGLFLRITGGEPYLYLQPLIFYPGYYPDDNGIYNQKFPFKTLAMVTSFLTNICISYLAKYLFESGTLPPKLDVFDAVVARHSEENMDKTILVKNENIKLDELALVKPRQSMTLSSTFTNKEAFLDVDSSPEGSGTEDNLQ

[7] = target: T4, High affinity choline transporter 1; assay: human choline transporter blockers, potency – cell-based, 10-point CRC, membrane potential dye, dose response (AID 588401); format: functional;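 note: membrane potential dye fluorescence of choline-evoked depolarization via CHT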
[8] = Trypanosoma cruzi growth suppression in host cells – NIH3T3 host cells, beta-gal luminescence, confirmation (AID 2044); format: functional, cell-based;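 note: intracellular parasites grown in NIH/3T3 mouse fibroblasts as host cells; luminescent beta-galactosidase reporter signal from transgenic T. cruzi replicating inside host cells; inhibitors lower the luminescence signal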
[9] = NIH3T3 cell viability loss – ATP luminescence, mouse fibroblasts, counter-screen, dose response (AID 2010); format: functional, cell-based;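 note: cells exposed to compound for about 90 hours before reading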
[10] = target: T5, Microphthalmia-associated transcription factor (Homo sapiens, UniProt O75030); assay: reducers of TRPM1 reporter luminescence, concentration series – cell-based, SK-MEL-5, cherry-picked, set 3, MITF inhibitor project, dose response (AID 493073); format: functional;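 note: SK-MEL-5 melanoma cells with luciferase driven by the MITF target TRPM1 promoter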
T5 sequence (O75030 whole entry): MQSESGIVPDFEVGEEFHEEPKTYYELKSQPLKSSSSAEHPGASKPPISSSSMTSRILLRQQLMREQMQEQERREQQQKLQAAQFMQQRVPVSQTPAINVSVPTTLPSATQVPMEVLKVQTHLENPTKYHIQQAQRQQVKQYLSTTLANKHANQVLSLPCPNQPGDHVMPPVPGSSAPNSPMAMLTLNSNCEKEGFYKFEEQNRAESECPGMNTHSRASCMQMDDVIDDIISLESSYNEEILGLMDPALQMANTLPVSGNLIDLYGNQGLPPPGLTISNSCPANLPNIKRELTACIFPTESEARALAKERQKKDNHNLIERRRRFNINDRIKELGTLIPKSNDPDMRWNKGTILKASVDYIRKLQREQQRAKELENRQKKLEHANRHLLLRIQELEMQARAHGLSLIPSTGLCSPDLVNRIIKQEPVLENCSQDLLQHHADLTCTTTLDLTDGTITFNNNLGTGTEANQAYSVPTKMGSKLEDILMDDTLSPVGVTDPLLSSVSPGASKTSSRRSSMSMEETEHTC

[11] = target: T3, Short transient receptor potential channel 4; assay: block of DAMGO-driven TRPC4 calcium entry – cell-based, HEK293 TRPC4/mu-opioid, Fluo-4 calcium, dose response (AID 434942); format: functional;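 note: potency of inhibitors blocking the TRPC4 calcium response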
[12] = target: Heat shock protein HSP 90-alpha (Homo sapiens, UniProt P07900); format: functional, organism-based
Cytochrome P450 2D6 = Cytochrome P450 2D6 (Homo sapiens, UniProt P10635);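 note: CYP2D6 member of a cytochrome P450 panel assay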
Cytochrome P450 2D6, sequence (P10635 whole entry): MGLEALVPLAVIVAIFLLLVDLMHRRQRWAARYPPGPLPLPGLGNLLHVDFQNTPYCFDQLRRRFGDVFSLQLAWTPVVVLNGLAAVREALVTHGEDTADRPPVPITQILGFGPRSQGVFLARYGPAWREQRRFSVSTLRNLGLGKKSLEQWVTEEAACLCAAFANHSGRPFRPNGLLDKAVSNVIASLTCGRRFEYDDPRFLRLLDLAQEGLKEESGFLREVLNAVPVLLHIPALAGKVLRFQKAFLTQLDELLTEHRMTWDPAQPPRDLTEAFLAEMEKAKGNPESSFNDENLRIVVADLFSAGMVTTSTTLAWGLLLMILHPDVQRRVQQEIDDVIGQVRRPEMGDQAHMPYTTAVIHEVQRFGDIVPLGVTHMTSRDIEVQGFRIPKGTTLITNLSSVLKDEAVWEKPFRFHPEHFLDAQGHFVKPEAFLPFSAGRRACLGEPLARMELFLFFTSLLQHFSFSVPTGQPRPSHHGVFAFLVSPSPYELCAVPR

[13] = NIH-3T3 fibroblast cytotoxicity, dose response, cytotoxicity control, cell-based, fluorescence, Alamar Blue, secondary assay (AID 2327); format: functional;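 note: NIH-3T3 mouse fibroblasts cultured with fluconazole at 8 µg/mL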
[14] = test system: Streptococcus sp. 'group A'; assay: Streptococcus pyogenes SK(-)GAS viability under kanamycin – luminescence, BacTiterGlo, confirmation, counter-screen for streptokinase expression inhibitor project, dose response (AID 1900); format: functional, organism-based
[15] = fluconazole-exposed Candida albicans growth modulators – fluorescence, retest, confirmation (AID 2467); format: functional, cell-based
[16] = target: Luciferin 4-monooxygenase (Photinus pyralis, UniProt P08659); assay: inhibition of purified Photinus pyralis luciferase – biochemical, luminescence, dose response (AID 1891)
Luciferin 4-monooxygenase, sequence (P08659 whole entry): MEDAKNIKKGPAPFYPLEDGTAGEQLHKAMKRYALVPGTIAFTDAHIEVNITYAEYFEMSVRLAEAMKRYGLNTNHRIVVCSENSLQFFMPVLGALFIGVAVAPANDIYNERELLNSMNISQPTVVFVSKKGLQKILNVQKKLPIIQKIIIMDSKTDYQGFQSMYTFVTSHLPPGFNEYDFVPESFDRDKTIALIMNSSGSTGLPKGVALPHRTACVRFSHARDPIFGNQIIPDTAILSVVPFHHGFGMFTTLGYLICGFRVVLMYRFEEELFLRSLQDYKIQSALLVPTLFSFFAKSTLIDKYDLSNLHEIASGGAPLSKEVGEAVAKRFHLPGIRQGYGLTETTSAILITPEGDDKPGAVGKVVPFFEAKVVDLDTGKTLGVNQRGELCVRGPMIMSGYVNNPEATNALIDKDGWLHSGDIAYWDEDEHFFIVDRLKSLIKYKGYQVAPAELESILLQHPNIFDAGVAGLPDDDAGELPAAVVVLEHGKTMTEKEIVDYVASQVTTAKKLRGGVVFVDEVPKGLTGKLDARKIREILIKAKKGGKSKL

[17] = Luminescence Cell-Based Dose Confirmation HTS to Identify Inhibitors of Platelet Dense Granule Release. [Related pubchem assays: 1663 (Primary HTS), 1678 (Summary of Project)]; format: functional
Streptococcus = assay: GAS UMAA2166 growth inhibition – luminescence, BacTiterGlo, counter-screen for streptokinase expression inhibitor project, dose response (AID 1915); format: functional, organism-based;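 note: potency for reduction of bacterial viability or growth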
HEK293 = assay: EBV LMP1 TES2 canonical NF-kB signalling blockers – cell-based, HEK293, luciferase, cherry-pick, dose response (AID 588343); format: functional; conditions: Homo sapiens
INS1 = assay: INS-1E survival protection against cytokine death – cell-based, luminescence, retest, dose response (AID 449756); format: functional; conditions: Rattus norvegicus;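 note: cell death triggered by IL-1 beta plus TNF-alpha plus IFN-gamma mixture; protective hits raise ATP signal compared with cytokine alone wells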
[18] = target: T6, Heat shock factor protein 1 (Mus musculus, UniProt P38532); assay: decrease of HSF1-responsive luciferase luminescence – cell-based, NIH3T3, dose retest, confirmation (AID 2382); format: functional;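 note: NIH3T3 fibroblasts with HSF1-driven luciferase reporter stressed by proteasome inhibitor MG132; luminescence from HSF1-driven luciferase expression after 8 hours of MG132 stress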
T6 sequence (P38532 whole entry): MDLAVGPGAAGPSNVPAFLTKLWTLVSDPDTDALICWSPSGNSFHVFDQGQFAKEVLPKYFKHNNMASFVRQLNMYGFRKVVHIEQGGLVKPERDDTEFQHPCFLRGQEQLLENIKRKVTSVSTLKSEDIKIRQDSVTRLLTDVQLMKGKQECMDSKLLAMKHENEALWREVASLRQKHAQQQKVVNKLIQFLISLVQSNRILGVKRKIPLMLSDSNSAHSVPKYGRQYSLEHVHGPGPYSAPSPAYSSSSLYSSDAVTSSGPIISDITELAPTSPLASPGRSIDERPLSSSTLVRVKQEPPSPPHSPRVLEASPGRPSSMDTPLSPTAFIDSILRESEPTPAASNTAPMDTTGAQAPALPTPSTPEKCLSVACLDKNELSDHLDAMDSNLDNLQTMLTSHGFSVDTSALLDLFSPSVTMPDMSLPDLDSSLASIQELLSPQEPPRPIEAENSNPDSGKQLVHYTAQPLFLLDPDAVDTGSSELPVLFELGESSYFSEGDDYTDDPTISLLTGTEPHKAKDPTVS

T1 sequence (Q00975 whole entry): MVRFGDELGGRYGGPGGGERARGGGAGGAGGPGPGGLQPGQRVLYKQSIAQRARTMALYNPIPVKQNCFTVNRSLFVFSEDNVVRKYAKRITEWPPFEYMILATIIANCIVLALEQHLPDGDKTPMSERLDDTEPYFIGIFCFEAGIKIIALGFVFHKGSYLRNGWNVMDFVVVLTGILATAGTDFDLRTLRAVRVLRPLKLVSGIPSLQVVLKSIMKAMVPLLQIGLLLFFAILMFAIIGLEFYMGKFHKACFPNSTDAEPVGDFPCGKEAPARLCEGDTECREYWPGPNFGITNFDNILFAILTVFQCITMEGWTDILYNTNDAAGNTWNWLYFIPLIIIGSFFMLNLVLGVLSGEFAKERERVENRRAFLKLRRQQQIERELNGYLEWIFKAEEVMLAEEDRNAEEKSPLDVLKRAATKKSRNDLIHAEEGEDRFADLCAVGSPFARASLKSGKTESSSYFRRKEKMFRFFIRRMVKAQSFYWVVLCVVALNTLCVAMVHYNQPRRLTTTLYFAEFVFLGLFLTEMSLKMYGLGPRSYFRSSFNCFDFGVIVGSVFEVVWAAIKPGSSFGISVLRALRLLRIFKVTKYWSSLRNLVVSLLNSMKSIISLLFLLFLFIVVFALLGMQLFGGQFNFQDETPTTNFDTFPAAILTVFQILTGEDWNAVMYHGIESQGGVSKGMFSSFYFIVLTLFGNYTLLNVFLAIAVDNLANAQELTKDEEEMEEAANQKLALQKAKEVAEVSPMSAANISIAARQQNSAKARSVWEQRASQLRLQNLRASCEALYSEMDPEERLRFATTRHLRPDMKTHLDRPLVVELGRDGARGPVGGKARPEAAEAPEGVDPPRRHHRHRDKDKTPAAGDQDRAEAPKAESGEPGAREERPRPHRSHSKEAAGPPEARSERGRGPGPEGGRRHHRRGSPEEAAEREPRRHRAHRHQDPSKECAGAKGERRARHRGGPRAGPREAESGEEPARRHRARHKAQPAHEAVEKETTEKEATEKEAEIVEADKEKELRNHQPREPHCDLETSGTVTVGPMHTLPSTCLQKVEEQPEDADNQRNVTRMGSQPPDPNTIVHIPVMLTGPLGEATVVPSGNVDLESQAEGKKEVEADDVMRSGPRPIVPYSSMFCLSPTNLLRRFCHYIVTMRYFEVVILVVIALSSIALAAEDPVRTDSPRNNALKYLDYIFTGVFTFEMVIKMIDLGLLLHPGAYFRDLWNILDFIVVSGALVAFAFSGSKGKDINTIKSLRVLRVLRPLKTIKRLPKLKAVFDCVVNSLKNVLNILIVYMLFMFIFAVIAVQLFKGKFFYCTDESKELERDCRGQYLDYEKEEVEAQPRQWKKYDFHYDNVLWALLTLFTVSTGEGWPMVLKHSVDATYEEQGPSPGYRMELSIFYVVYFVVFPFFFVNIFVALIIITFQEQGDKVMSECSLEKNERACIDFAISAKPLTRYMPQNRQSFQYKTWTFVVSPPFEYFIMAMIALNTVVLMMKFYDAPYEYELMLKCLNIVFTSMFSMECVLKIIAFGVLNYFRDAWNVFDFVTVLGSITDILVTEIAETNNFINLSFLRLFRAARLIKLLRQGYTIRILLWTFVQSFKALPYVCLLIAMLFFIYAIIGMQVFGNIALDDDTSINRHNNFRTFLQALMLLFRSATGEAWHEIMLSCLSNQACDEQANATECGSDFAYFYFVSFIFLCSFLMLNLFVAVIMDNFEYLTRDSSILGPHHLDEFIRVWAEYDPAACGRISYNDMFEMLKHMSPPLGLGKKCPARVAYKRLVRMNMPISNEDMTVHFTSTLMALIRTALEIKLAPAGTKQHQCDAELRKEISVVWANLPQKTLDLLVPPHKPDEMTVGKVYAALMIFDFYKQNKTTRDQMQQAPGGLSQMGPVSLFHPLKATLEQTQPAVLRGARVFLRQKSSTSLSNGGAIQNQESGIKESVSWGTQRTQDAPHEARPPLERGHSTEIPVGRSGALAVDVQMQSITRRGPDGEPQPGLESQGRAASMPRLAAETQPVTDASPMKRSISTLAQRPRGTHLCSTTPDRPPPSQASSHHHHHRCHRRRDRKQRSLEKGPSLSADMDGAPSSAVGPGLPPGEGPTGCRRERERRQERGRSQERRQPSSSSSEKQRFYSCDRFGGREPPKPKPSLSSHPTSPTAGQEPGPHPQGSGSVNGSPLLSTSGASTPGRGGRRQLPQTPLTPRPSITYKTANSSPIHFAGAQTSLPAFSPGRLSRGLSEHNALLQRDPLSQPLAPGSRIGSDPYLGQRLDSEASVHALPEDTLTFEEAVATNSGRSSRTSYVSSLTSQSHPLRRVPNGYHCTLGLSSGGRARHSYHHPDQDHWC
T1 sequence (Q02410 whole entry): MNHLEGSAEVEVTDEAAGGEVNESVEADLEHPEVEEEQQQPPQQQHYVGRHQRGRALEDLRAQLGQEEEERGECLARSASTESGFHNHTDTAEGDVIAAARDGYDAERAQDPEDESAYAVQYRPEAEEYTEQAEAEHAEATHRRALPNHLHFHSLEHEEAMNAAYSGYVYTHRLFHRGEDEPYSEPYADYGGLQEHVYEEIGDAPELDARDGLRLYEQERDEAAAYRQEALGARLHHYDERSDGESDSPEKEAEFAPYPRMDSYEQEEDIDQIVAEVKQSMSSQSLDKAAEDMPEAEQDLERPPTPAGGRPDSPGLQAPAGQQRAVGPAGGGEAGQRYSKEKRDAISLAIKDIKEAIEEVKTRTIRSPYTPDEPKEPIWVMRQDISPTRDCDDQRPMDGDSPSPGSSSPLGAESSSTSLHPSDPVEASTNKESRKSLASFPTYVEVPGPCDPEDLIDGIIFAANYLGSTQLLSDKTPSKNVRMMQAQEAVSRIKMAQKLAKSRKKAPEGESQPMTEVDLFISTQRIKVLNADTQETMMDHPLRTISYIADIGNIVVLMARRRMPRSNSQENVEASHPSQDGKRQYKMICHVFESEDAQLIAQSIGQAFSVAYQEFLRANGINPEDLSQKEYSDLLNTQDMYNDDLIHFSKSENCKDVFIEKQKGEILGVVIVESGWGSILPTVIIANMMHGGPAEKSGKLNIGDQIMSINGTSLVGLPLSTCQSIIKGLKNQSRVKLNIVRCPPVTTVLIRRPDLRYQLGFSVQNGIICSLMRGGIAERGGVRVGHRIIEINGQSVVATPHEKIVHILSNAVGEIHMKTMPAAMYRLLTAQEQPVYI

## COc1cccc(/N=c2\oc3ccc(OC)cc3cc2-c2nc3ccccc3[nH]2)c1
[1]
  IC50: 41 µM (active)
[2]
  IC50: > 50 µM (inactive)
[3]
  IC50: 7.91 µM (active)
[4]
  IC50: > 67.5 µM (inactive)

## CN1CCC(CNC(=O)Nc2ccccc2)(c2ccccc2)CC1
[5]
  EC50: 1.33 µM (active)

## Cc1cccc(N2CCN(C(=O)CCCn3c(=O)[nH]c4ccsc4c3=O)CC2C)c1 (stereo not given)
[6]
  IC50: 9.39 µM (active)
[7]
  IC50: 8.43 µM (active)

## COc1ccc(S(=O)(=O)N2CCCCC2)cc1NC(=O)c1ccc([N+](=O)[O-])o1
[8]
  EC50: 4.55 µM (active)
[9]
  EC50: 11.9 µM (active)
[10]
  AC50: 9.14 µM (active)

## N#Cc1cc2c(nc1SC1CC(=O)N(c3ccccc3)C1=O)CCC2 (stereo not given)
[10]
  AC50: 1.78 µM (active)

## CCN=C(S)N1CCC(C(O)(c2ccccc2)c2ccccc2)CC1
[11]
  EC50: 1.68 µM (active)
[5]
  EC50: 10.6 µM (active)

## COC1CCC(OC2CC(C3(C)CCC4(CC(O)C(C)C(C(C)/C=C(\C)C(=O)C(C)CC(C)C(=O)O)O4)O3)OC3(OC(C4OC(O)(CO)C(C)CC4C)CC3C)C2C)OC1C (stereo not given)
[12]
  AC50: 5.72 µM (active)

## Cc1nccn1C[C@@H]1CCc2c(c3ccccc3n2C)C1=O [(S)-ONDANSETRON]
[6]
  IC50: 0.0214 µM (active)
[7]
  IC50: 1.12 µM (active)
Cytochrome P450 2D6
  AC50: 10 µM (inconclusive)

## CCc1ccc(CN(C)CCc2ccccn2)cc1
[8]
  EC50: < 0.1 µM (active)
[9]
  EC50: > 30 µM (not active)
cells
  EC50: 0.035 µM (active)

## O=c1c2ccccc2[nH]c(=S)n1CCN1CCCC1
[6]
  IC50: 8.33 µM (active)
[7]
  IC50: 4.01 µM (active)

## N#Cc1c(N)nc(SCc2ccccn2)c(C#N)c1-c1cccs1
[6]
  IC50: 0.158 µM (active)
[7]
  IC50: 0.0829 µM (active)

## O=C(NC(c1ccc(Cl)cc1)c1cc(Cl)c2cccnc2c1O)c1cccnc1 (stereo not given)
[13]
  EC50: 8.56 µM (inconclusive)
[14]
  EC50: 0.73 µM (active)
[15]
  EC50: 0.66 µM (active)
[16]
  EC50: > 112 µM (not active)
[17]
  EC50: > 112 µM (not active)
[8]
  EC50: 0.253 µM (active)
[9]
  EC50: 6.88 µM (active)
Streptococcus
  EC50: 1.36 µM (active)
HEK293
  AC50: 2 µM (active)
[12]
  AC50: 24.2 µM (active)
INS1
  AC50: 0.951 µM (active)

## COc1ccc2nc(N(CCN(C)C)C(=O)c3ccc4c(c3)OCCO4)sc2c1
[8]
  EC50: < 0.1 µM (active)
[9]
  EC50: > 60 µM (not active)
cells
  EC50: 0.095 µM (active)

## CN(C)C(CN=C(S)Nc1ccc(F)cc1)c1cccnc1 (stereo not given)
[5]
  EC50: 0.0173 µM (active)

## CCn1c2ccccc2c2cc(CNCCCN3CCOCC3)ccc21
[8]
  EC50: < 0.1 µM (active)
[9]
  EC50: > 60 µM (not active)
cells
  EC50: 0.013 µM (active)

## CCc1ccc(C(CNc2nc(C(F)(F)F)nc3ccccc23)N(C)C)cc1 (stereo not given)
[18]
  EC50: > 195 µM (not active)
[11]
  EC50: 1.06 µM (active)
[5]
  EC50: 2.99 µM (active)

From ChEMBL document CHEMBL1201862, “PubChem BioAssay data set” (2004)
